# Molecular target: BTK (Homo sapiens, UniProt Q06187)
# Experiment: biochemical
# Conditions: read-out: BTK inhibition (%), 0.75 uM BTK, […] probe 3l, 15 min preincubation
# BTK, sequence (Q06187 402-655 limits assumed): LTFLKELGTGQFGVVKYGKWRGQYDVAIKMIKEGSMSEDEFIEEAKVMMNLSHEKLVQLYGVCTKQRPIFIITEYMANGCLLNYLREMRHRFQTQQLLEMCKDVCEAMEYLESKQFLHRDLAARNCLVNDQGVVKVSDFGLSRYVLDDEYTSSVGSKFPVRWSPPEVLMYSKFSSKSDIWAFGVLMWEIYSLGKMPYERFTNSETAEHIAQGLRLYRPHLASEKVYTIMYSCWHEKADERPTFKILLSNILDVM
row,SMILES,inhibition at 10 µM [%]
1,CN(c1ccccc1CNc1nc(Nc2ccc3c(c2)CC(=O)N3)ncc1C(F)(F)F)S(C)(=O)=O [PCM-0215410],91.7
2,CN(C)CCNC(=O)c1cccn2c(=O)c3cc4ccccc4cc3nc12 [PCM-0215411],5.4
3,CNC(=O)c1ccccc1Nc1cc(Nc2ccc(N3CCOCC3)cc2OC)ncc1C(F)(F)F [PCM-0215412],63.4
4,COc1ccc(Oc2cc(C)c(-c3csc(NC(=O)c4ccncc4)n3)c(C)c2)cc1 [PCM-0215413],20.8
5,Cc1cc(N=Nc2ccc(S(=O)(=O)Nc3ccccn3)cc2)c(N)cc1O [PCM-0215414],76.4
6,O=C(NO)c1ccc(CC(=O)N(CCO)c2ccccc2)cc1 [PCM-0215415],10.8
7,C=CC(=O)N1CCC(Oc2cc3c(Nc4ccc(Cl)c(Cl)c4F)ncnc3cc2OC)CC1 [PCM-0215416],119
8,CN(C)CCCNC(=O)c1ccc(-c2cc(O)c3ncccc3c2)cc1 [PCM-0215418],19.3
9,Cn1cc(-c2ccc(S(=O)(=O)n3ccc(/C=C/C(=O)Nc4ccccc4N)c3)cc2)cn1 [PCM-0215419],32.4
10,Nc1nc(NC2CC2)cc(-c2cccc(Cl)c2Cl)n1 [PCM-0215420],28.6
11,Cc1ncc(Cl)cc1NCc1ccc(C(=O)N[C@@H](CC2CCCC2)C(=O)NC2CC2)s1 [PCM-0215421],15.4
12,Fc1ccc2[nH]ccc2c1-c1nc(N2CCOCC2)c2sc(CN3CCN(CC4CC4)CC3)cc2n1 [PCM-0215422],-18.6
13,CCc1cc(/C(C)=N/OCc2ccc(C3CCCCC3)c(C(F)(F)F)c2)ccc1CN1CC(C(=O)O)C1 [PCM-0215423],-62.8
14,COC(=O)[C@H](CCSC)NC(=O)c1ccc(NC[C@@H](N)CS)cc1-c1ccccc1 [PCM-0215424],-57.9
15,CN(C)c1cccc(-c2c3c(=O)n(-c4ccccc4Cl)[nH]c3cc(=O)n2C)c1 [PCM-0215425],-1.4
16,COc1ccc(CCNCc2ccc(OCc3ccc(Cl)nc3)c(OC)c2)cc1OC [PCM-0215426],-27.6
17,O=C(O)CCC(=O)Nc1ccc(Br)cn1 [PCM-0215427],-3.4
18,Fc1ccc(Cl)cc1-c1nc(Nc2ccncc2)c2nccnc2n1 [PCM-0215428],-17
19,C/C(O)=C(\C#N)C(=O)Nc1cc(Br)ccc1Br [PCM-0215429],-1.4
20,O=C(O)c1cc(C(F)(F)F)ccc1N1CC[C@H](OCc2ccccn2)C1 [PCM-0215430],8.5
21,Cc1nc2ccc(NC(=O)Nc3ccnc4cccnc34)cc2o1 [PCM-0215431],-18.5
22,Cn1cc(C[C@@H](N)C(=O)O)c2ccccc21 [PCM-0215432],-11.1

row,SMILES,inhibition at 10 µM [%]
1,CC(ONC(=O)c1cc(C(F)(F)F)cc(C(F)(F)F)c1)C(=O)Nc1ccc(Cl)cc1 (centres unmarked) [PCM-0215433],7.7
2,CNC(=O)c1cc(Oc2ccc3nc(N[C@@H]4CCCC[C@H]4O)sc3c2)ccn1 [PCM-0215436],-9
3,CCCC[C@@H](C=O)NC(=O)[C@H](CC(C)C)NC(=O)OCc1ccccc1 [PCM-0215437],-4.6
4,O=C1NC(=O)C(c2cnc3ccccn23)=C1c1cn2c3c(cc(F)cc13)CN(C(=O)N1CCCCC1)CC2 [PCM-0215438],80
5,Cc1nc2ccc(-n3ncc(C(=O)c4cc5ccccc5[nH]4)c3N)cc2[nH]1 [PCM-0215439],44.8
6,COc1cc2nc(N3CCCC3)nc(NCCCCCN3CCCC3)c2cc1OC [PCM-0215440],17.8
7,Cc1ccccc1N=Nc1ccc(NC(=O)c2ccnn2C)c(C)c1 [PCM-0215441],6.9
8,Cc1nn(C)c2c1C(c1ccc(C(F)(F)F)cc1)C(C#N)=C(N)O2 (centres unmarked) [PCM-0215442],-6.9
9,CNc1cccc(CCOc2ccc3c(c2)CN(CC(F)(F)F)C(=O)[C@H](CC(=O)O)C3)n1 [PCM-0215443],8.5
10,CC[C@H](C)n1cc(C)c2c(C(=O)NCc3c(C)cc(C)[nH]c3=O)cc(-c3ccc(N4CCNCC4)nc3)cc21 [PCM-0215444],-2.6
11,C[C@H]1CO[C@@H]2Cn3cc(C(=O)NCc4ccc(F)cc4F)c(=O)c(O)c3C(=O)N12 [PCM-0215445],24.7
12,O=C(NC[C@H](O)CN1CCc2ccccc2C1)c1cc(NC2COC2)ncn1 [PCM-0215447],1.5
13,CC#CC(=O)Nc1ccc2ncnc(Nc3cccc(Br)c3)c2c1 [PCM-0215449],103
14,CC(C)(C)C[C@@H]1N[C@@H](C(=O)NC2CCC(O)CC2)[C@H](c2cccc(Cl)c2F)[C@]12C(=O)Nc1cc(Cl)ccc12 (some centres unmarked) [PCM-0215450],21.6
15,COC(=O)c1ccc2c(c1)[nH]c1ncnc(NCCCN3CCCCC3)c12 [PCM-0215451],-0.8
16,O=S(=O)(N=Cc1c(O)ccc2ccccc12)c1cccs1 [PCM-0215452],-11.6
17,CCn1c(=O)c(-c2ccc(-c3cncs3)cc2Cl)cc2cnc(Nc3ccc(N4CCN(C)CC4)cc3)nc21 [PCM-0215453],18.6
18,Cc1nc(-c2cccnc2)sc1C(=O)Nc1ccccc1-c1cn2c(CN3CCOCC3)csc2n1 [PCM-0215454],12.4
19,O=C1NC(=NCc2cccs2)S/C1=C\c1ccc2ncccc2c1 [PCM-0215455],-9
20,O=C(NO)c1cccc(C(=O)NCCc2ccccc2)c1 [PCM-0215456],10
21,Clc1cccc(CN=C2Nc3ccccc3NC23CCNCC3)c1 [PCM-0215457],4.6
22,CCS(=O)(=O)N1CCC(C(C)n2c(C)c(C(=O)NCc3c(OC)cc(C)[nH]c3=O)c3ccccc32)CC1 (centres unmarked) [PCM-0215486],-3.1

# Next, values leading:
row,inhibition at 10 µM [%],SMILES
1,-10.8,CN1CCN(CCCNc2ncc(Cl)c(-c3cc4c(C(=O)NC5CC5)cccc4s3)n2)CC1 [PCM-0215458]
2,-40,Cn1ncc(Cl)c1-c1cc(C(=O)N[C@H](CN)Cc2cccc(F)c2)sc1Cl [PCM-0215459]
3,33.8,COC1(c2sc3c(N4CCOCC4)nc(-c4cnc(N)nc4)nc3c2C)COC1 [PCM-0215460]
4,0,O=C(Cc1cccc(OC(F)(F)F)c1)Nc1ccc(CCCCc2nnc(NC(=O)Cc3ccccn3)s2)nn1 [PCM-0215461]
5,-19.3,COc1cc(-c2cc(-c3ccc(N4CCNCC4)cc3)cnc2C)cc(OC)c1OC [PCM-0215462]
6,98.1,CCOC(=O)c1ccc(NC(=O)O[C@H]2[C@H](OC(=O)Nc3ccc4c(c3)OCO4)[C@@H](OC(=O)Nc3ccc4c(c3)OCO4)[C@@H](OC)O[C@@H]2CO)cc1 [PCM-0215463]
7,50.3,CC(C)[C@H](CO)Nc1nc(Nc2cccc(Cl)c2)c2ncn(C(C)C)c2n1 [PCM-0215464]
8,-11.7,COc1cc2ncnc(Oc3ccc(CC(=O)Nc4cnn(C(C)C)c4)cc3)c2cc1OC [PCM-0215465]
9,-10.8,Cc1nc2c(O)cccc2c(=O)[nH]1 [PCM-0215466]
10,0,O=[N+]([O-])c1ccc(Nc2nc(N3CCOCC3)nc(N3CCOCC3)n2)cc1 [PCM-0215468]
11,-0.8,Clc1cccc(-c2nnnn2Cc2cccnc2)c1Cl [PCM-0215469]
12,10.8,O=CN1CC/C(=C\c2ccc3c(c2)OCO3)C1=O [PCM-0215470]
13,-10,NCCCC[C@@H]1NC(=O)[C@@H](Cc2ccccc2)NC(=O)[C@H](CC(=O)O)NC(=O)CNC(=O)[C@H](CCCN=C(N)N)NC1=O [PCM-0215471]
14,17.2,NC(=O)c1ccc(-c2nc(-c3ccc4c(c3)OCCO4)c(-c3ccccn3)[nH]2)cc1 [PCM-0215472]
15,24.1,COc1ccc(Cl)c(Nc2nc3ccccc3nc2NS(=O)(=O)c2cccc(NC(=O)C(C)(C)N)c2)c1 [PCM-0215473]
16,7.7,N#Cc1ccc(COC[C@H]2O[C@@H](n3c(NCc4ccc(Cl)c(Cl)c4)nc4c(N)ncnc43)[C@H](O)[C@@H]2O)cc1 [PCM-0215474]
17,28.3,Cc1ccc(-n2nc(C(C)(C)C)cc2NC(=O)NCc2cc(F)ccc2Oc2ccc3c(cnn3CCO)c2)cc1 [PCM-0215475]

row,inhibition at 10 µM [%],SMILES
1,59.5,NCCOc1cc(C(=O)Nc2cc(OCCN)c3ccccc3n2)nc(C(=O)Nc2cc(OCCN)c3ccccc3n2)c1 [PCM-0215476]
2,40.9,CNc1ncc2cc(-c3cc(NC(=O)NCCC(C)(C)C)c(F)cc3C)c(C)nc2n1 [PCM-0215477]
3,-3.1,O=C(O)CCNc1cc(N2CCc3ccccc3CC2)nc(-c2ccccn2)n1 [PCM-0215478]
4,-3.9,Nc1ccccc1NC(=O)c1cnccn1 [PCM-0215479]
5,-5.5,O=C(c1ccc(F)c(F)c1Nc1ccc(I)cc1F)N1CC(O)([C@@H]2CCCCN2)C1 [PCM-0215480]
6,78.6,CC(C)Nc1cc(-c2c[nH]c(C(=O)N[C@H](CO)c3cccc(Cl)c3)c2)c(Cl)cn1 [PCM-0215481]
7,5.4,O=C(Cc1ccccc1)Nc1nnc(CCSCCc2nnc(NC(=O)Cc3ccccc3)s2)s1 [PCM-0215483]
8,-13.9,CCCCCCCCC/C(=C\C1=C(C)C(=O)C(OC)=C(OC)C1=O)C(=O)O [PCM-0215484]
9,14.7,CC/C(=C(\c1ccc(O)cc1)c1ccc(OCCNC)cc1)c1ccccc1 [PCM-0215485]
10,40.9,CCOC(=O)C1=C(N)Oc2ccc(Cl)cc2C1C(C#N)C(=O)OCC (centres unmarked) [PCM-0215487]
11,88.3,CCNC(=O)C#Cc1ccc2c(C(=Nc3ccc(CN(C)C)cc3)c3ccccc3)c(O)[nH]c2c1 [PCM-0215488]
12,91.7,C=CC(=O)Nc1cc(Nc2nccc(-c3c[nH]c4ccccc34)n2)c(OC)cc1N(C)CCN(C)C [PCM-0215489]
13,-5.4,NC1=N[C@@](c2cccc(-c3cncnc3)c2)(c2ccnc(C(F)F)c2)c2cccc(F)c21 [PCM-0215490]
14,2.8,COc1cc(C(=O)N2CCC(N3CCN(C)CC3)CC2)ccc1Nc1ncc2c(n1)N(C)c1ccccc1C(=O)N2C [PCM-0215491]
15,-10,NCCCC[C@@H]1NC(=O)[C@@H](Cc2ccc(O)cc2)NC(=O)[C@H](CC(=O)O)NC(=O)CNC(=O)[C@H](CCCN=C(N)N)NC1=O [PCM-0215492]
16,95.9,Cc1c(C(=O)Nc2ccc(Oc3ccnc4[nH]cc(-c5ccccc5)c34)c(F)c2)c(=O)n(-c2ccc(F)cc2)n1C [PCM-0215493]
